Data: ChEMBL document CHEMBL4507280 (2021)

Tests used:
[1] = biological target: MAP/microtubule affinity-regulating kinase 3 (Homo sapiens) (UniProt P27448); settings: Compound concentration 1000.0 nM
[2] = biological target: Fibroblast growth factor receptor 4 (Homo sapiens) (UniProt P22455); settings: Compound concentration 1000.0 nM
[3] = biological target: T1, Muscarinic acetylcholine receptor M2 (Homo sapiens) (UniProt P08172); settings: Compound concentration 10.0 uM
T1 sequence (whole entry): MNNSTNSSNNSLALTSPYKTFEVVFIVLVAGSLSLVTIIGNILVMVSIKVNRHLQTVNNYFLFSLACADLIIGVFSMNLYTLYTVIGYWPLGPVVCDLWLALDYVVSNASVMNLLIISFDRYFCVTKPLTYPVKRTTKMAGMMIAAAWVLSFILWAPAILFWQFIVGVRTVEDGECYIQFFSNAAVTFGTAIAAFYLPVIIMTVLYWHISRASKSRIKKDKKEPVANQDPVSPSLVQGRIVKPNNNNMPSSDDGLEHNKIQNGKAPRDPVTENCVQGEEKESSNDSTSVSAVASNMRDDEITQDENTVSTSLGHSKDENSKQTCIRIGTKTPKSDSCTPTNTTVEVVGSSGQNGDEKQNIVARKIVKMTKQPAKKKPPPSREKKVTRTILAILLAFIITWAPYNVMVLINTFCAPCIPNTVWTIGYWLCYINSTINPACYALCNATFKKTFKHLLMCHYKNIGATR

[4] = tested on: Mast/stem cell growth factor receptor Kit (Homo sapiens), P10721 [D816V]; settings: Compound concentration 1000.0 nM
[5] = biological target: Serine/threonine-protein kinase PRP4 homolog (Homo sapiens) (UniProt Q13523); settings: Compound concentration 1000.0 nM
[6] = tested on: Receptor-type tyrosine-protein kinase FLT3 (Homo sapiens), P36888 [N841I]; settings: Compound concentration 1000.0 nM
[7] = biological target: Receptor-type tyrosine-protein kinase FLT3 (Homo sapiens) (UniProt P36888); settings: Compound concentration 1000.0 nM
[8] = tested on: Receptor-type tyrosine-protein kinase FLT3 (Homo sapiens), P36888 [UNDEFINED MUTATION]; settings: Compound concentration 1000.0 nM
[9] = biological target: Tyrosine-protein kinase Srms (Homo sapiens) (UniProt Q9H3Y6); settings: Compound concentration 1000.0 nM
[10] = biological target: Activin receptor type-1-like (Homo sapiens) (UniProt P37023); settings: Compound concentration 1000.0 nM
[11] = biological target: Serine/threonine-protein kinase N1 (Homo sapiens) (UniProt Q16512); settings: Compound concentration 1000.0 nM
[12] = biological target: Mitogen-activated protein kinase kinase kinase 15 (Homo sapiens) (UniProt Q6ZN16); settings: Compound concentration 1000.0 nM
Sequence of Mitogen-activated protein kinase kinase kinase 15 (Homo sapiens) (Q6ZN16 whole entry): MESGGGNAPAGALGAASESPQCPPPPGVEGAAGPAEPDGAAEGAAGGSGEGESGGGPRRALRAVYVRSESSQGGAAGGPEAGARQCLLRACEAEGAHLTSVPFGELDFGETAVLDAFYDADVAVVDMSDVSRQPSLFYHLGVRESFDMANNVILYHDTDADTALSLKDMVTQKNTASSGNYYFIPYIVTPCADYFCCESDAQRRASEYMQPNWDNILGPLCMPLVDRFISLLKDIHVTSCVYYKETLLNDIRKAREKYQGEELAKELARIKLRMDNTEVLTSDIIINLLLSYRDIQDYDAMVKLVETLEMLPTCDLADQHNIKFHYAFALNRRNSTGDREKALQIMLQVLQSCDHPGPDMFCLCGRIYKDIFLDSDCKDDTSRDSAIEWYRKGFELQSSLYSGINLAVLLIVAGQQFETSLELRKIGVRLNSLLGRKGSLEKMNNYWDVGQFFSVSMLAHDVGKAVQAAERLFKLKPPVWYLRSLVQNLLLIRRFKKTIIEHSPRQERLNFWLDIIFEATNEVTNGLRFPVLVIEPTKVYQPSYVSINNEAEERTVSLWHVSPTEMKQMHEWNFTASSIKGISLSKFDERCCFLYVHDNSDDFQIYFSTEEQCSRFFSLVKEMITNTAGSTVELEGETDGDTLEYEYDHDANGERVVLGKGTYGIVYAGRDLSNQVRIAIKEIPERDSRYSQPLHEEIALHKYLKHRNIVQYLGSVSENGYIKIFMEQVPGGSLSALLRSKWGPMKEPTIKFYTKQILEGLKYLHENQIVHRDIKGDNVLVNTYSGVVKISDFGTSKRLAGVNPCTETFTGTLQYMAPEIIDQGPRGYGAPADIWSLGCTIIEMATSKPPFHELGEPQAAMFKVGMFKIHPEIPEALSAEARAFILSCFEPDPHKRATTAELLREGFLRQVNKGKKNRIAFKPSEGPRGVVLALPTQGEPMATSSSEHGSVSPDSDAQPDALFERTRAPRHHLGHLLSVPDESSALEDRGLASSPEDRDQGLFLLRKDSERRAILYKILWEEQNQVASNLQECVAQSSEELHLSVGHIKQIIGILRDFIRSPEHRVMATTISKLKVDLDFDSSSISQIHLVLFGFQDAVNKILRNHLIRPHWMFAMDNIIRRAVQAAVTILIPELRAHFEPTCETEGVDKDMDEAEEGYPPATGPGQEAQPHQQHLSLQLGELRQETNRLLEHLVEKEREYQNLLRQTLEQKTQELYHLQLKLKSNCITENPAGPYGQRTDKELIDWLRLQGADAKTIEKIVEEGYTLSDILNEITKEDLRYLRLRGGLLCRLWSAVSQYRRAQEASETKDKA

[13] = biological target: Serine/threonine-protein kinase mTOR (Homo sapiens) (UniProt P42345); settings: Compound concentration 1000.0 nM
[14] = biological target: Ribosomal protein S6 kinase alpha-6 (Homo sapiens) (UniProt Q9UK32); settings: Compound concentration 1000.0 nM
Sequence of Ribosomal protein S6 kinase alpha-6 (Homo sapiens) (Q9UK32 whole entry): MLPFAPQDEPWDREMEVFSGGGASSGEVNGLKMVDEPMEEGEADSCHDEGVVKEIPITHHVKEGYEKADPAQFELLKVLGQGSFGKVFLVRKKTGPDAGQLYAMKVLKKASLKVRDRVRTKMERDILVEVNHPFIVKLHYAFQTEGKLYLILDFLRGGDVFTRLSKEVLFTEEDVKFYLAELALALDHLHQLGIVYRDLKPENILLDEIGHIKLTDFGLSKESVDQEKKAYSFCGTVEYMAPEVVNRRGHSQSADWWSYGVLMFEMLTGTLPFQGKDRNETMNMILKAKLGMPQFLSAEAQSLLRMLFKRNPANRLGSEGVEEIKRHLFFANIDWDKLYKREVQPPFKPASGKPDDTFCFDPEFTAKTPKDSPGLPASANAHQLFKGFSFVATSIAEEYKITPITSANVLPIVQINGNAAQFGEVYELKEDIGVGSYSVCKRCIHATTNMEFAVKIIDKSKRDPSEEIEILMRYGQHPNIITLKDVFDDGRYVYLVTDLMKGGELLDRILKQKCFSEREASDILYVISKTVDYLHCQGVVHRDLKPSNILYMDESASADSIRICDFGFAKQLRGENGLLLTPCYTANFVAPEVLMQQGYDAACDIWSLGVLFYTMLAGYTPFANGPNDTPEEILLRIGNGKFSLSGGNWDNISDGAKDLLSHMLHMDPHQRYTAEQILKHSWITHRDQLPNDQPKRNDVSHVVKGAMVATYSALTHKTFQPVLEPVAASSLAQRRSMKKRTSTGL

[15] = tested on: Epidermal growth factor receptor (Homo sapiens), P00533 [T790M]; settings: Compound concentration 1000.0 nM
[16] = biological target: Serine/threonine-protein kinase Nek4 (Homo sapiens) (UniProt P51957); settings: Compound concentration 1000.0 nM
[17] = tested on: ALK tyrosine kinase receptor (Homo sapiens), Q9UM73 [L1196M]; settings: Compound concentration 1000.0 nM
Sequence of ALK tyrosine kinase receptor (Homo sapiens), Q9UM73 [L1196M] (Q9UM73 whole entry L1196M, looked up): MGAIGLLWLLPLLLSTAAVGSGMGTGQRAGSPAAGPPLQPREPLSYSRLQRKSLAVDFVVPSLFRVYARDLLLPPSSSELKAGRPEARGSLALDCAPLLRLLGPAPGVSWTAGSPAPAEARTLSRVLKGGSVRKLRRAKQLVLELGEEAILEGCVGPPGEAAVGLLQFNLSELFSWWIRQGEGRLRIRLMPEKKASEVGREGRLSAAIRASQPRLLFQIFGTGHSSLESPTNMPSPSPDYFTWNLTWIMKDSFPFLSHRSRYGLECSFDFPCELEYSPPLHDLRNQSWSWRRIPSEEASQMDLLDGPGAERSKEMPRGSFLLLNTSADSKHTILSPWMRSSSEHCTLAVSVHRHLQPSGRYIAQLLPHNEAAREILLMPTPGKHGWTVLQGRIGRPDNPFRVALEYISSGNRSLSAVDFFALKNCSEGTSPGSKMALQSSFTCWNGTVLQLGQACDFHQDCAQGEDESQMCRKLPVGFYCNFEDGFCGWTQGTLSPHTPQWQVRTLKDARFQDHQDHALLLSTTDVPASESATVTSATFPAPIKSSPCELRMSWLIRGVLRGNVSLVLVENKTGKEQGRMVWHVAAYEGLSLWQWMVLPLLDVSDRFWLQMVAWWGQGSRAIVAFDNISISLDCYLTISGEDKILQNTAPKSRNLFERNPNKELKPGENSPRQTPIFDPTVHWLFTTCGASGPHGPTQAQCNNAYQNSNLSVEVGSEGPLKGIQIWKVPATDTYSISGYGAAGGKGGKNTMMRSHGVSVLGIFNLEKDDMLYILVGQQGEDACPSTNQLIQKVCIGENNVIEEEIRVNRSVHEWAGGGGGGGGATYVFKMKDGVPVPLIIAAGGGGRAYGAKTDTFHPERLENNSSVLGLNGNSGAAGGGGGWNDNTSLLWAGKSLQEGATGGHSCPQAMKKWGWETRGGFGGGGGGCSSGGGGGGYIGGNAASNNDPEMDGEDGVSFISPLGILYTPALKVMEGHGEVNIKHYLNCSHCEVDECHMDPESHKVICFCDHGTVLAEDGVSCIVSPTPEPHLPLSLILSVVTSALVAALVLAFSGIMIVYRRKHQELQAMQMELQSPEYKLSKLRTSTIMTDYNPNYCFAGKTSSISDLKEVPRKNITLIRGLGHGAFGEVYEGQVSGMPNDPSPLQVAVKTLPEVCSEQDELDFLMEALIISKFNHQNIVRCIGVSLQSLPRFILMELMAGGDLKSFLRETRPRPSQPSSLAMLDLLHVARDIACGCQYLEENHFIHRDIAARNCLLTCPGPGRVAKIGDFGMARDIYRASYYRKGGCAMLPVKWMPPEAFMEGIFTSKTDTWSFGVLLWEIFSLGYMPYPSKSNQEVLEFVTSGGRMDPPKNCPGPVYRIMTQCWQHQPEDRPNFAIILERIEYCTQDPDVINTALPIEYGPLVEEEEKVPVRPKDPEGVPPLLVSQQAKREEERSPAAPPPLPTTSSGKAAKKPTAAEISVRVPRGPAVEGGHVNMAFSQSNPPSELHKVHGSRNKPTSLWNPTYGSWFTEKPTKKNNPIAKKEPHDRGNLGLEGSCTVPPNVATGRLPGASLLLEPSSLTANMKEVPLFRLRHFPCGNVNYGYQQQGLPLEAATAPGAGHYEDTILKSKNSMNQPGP

[18] = biological target: Mitogen-activated protein kinase kinase kinase kinase 4 (Homo sapiens) (UniProt O95819); settings: Compound concentration 1000.0 nM
[19] = biological target: Tyrosine-protein kinase SYK (Homo sapiens) (UniProt P43405); settings: Compound concentration 1000.0 nM
[20] = biological target: Vascular endothelial growth factor receptor 2 (Homo sapiens) (UniProt P35968); settings: Compound concentration 1000.0 nM
[21] = biological target: Dual specificity tyrosine-phosphorylation-regulated kinase 1B (Homo sapiens) (UniProt Q9Y463); settings: Compound concentration 1000.0 nM
[22] = biological target: Hepatocyte growth factor receptor (Homo sapiens) (UniProt P08581); settings: Compound concentration 1000.0 nM
[23] = biological target: Serine/threonine-protein kinase TAO2 (Homo sapiens) (UniProt Q9UL54); settings: Compound concentration 1000.0 nM
[24] = biological target: Ephrin type-A receptor 6 (Homo sapiens) (UniProt Q9UF33); settings: Compound concentration 1000.0 nM
[25] = biological target: Serine/threonine-protein kinase 36 (Homo sapiens) (UniProt Q9NRP7); settings: Compound concentration 1000.0 nM
[26] = tested on: Phosphatidylinositol 4,5-bisphosphate 3-kinase catalytic subunit alpha isoform (Homo sapiens), P42336 [E545A]; settings: Compound concentration 1000.0 nM
[27] = biological target: Rho-associated protein kinase 1 (Homo sapiens) (UniProt Q13464); settings: Compound concentration 1000.0 nM
[28] = biological target: SRSF protein kinase 2 (Homo sapiens) (UniProt P78362); settings: Compound concentration 1000.0 nM
Sequence of SRSF protein kinase 2 (Homo sapiens) (P78362 whole entry, looked up): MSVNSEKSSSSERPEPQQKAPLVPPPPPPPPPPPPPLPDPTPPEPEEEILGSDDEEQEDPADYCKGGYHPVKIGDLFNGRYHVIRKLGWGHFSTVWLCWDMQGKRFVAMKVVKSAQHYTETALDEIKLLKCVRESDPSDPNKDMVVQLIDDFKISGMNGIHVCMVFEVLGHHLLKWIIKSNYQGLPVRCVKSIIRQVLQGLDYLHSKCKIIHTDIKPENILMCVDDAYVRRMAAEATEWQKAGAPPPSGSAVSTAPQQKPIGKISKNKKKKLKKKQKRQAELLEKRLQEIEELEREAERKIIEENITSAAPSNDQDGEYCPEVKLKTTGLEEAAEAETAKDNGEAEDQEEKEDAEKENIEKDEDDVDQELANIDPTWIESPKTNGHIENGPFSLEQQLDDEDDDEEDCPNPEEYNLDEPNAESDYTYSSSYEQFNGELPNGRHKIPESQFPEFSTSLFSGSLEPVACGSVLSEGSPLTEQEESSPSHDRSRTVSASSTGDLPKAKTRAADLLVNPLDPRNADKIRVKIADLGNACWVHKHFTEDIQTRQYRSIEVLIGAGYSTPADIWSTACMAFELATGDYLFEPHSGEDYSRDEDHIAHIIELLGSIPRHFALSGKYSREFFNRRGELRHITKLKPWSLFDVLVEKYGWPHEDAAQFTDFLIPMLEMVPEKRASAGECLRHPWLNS

[29] = biological target: Activin receptor type-2B (Homo sapiens) (UniProt Q13705); settings: Compound concentration 1000.0 nM
[30] = biological target: Ephrin type-A receptor 2 (Homo sapiens) (UniProt P29317); settings: Compound concentration 1000.0 nM
[31] = biological target: Fibroblast growth factor receptor 1 (Homo sapiens) (UniProt P11362); settings: Compound concentration 1000.0 nM
[32] = biological target: cAMP-dependent protein kinase catalytic subunit alpha (Homo sapiens) (UniProt P17612); settings: Compound concentration 1000.0 nM
[33] = biological target: Protein kinase C delta type (Homo sapiens) (UniProt Q05655); settings: Compound concentration 1000.0 nM
Sequence of Protein kinase C delta type (Homo sapiens) (Q05655 whole entry, looked up): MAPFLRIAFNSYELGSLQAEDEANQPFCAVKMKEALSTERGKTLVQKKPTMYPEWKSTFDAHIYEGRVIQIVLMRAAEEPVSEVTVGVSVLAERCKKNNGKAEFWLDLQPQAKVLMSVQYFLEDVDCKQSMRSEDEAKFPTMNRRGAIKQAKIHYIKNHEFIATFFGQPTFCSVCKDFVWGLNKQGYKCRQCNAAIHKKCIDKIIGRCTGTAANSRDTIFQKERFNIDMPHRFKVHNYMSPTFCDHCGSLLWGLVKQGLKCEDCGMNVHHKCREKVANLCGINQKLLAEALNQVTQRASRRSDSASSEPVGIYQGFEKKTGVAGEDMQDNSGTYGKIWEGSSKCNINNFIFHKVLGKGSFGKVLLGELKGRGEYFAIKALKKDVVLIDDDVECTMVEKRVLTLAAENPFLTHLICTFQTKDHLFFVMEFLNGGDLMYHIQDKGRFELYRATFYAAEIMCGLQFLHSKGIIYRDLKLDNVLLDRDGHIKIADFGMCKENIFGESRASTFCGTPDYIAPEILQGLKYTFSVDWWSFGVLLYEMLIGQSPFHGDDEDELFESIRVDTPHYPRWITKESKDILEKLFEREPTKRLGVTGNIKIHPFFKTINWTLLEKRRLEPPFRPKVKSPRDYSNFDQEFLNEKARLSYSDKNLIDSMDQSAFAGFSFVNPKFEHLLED

[34] = biological target: Serine/threonine-protein kinase WNK2 (Homo sapiens) (UniProt Q9Y3S1); settings: Compound concentration 1000.0 nM
[35] = biological target: 5'-AMP-activated protein kinase catalytic subunit alpha-2 (Homo sapiens) (UniProt P54646); settings: Compound concentration 1000.0 nM
[36] = biological target: Calcium/calmodulin-dependent protein kinase kinase 2 (Homo sapiens) (UniProt Q96RR4); settings: Compound concentration 1000.0 nM
[37] = biological target: Serine/threonine-protein kinase Nek10 (Homo sapiens) (UniProt Q6ZWH5); settings: Compound concentration 1000.0 nM
[38] = biological target: Mitogen-activated protein kinase 9 (Homo sapiens) (UniProt P45984); settings: Compound concentration 1000.0 nM
[39] = tested on: Receptor-type tyrosine-protein kinase FLT3 (Homo sapiens), P36888 [D835V]; settings: Compound concentration 1000.0 nM

Structure (SMILES)	residual activity [1]	residual activity [2]	inhibition [3]	residual activity [4]	residual activity [5]	residual activity [6]	residual activity [7]	residual activity [8]	residual activity [9]	residual activity [10]	residual activity [11]	residual activity [12]	residual activity [13]	residual activity [14]	residual activity [15]	residual activity [16]	residual activity [17]	residual activity [18]	residual activity [19]	residual activity [20]	further results
CCC(=O)N[C@H]1CC[C@@H](C(=O)N(C)c2ccc(-c3nc4ccccc4o3)cc2)C1 [BI 99179]	96%	100%	4.58%	86%	99%	100%	85%	84%	89%	77%	83%	100%	92%	82%	87%	99%	93%	91%	100%	75%	residual activity [21]: 100%; residual activity [22]: 100%; residual activity [23]: 76%; residual activity [24]: 76%; residual activity [25]: 100%; residual activity [26]: 90%; residual activity [27]: 100%; residual activity [28]: 61%; residual activity [29]: 100%; residual activity [30]: 100%; residual activity [31]: 100%; residual activity [32]: 100%; residual activity [33]: 100%; residual activity [34]: 74%; residual activity [35]: 88%; residual activity [36]: 91%; residual activity [37]: 80%; residual activity [38]: 79%; residual activity [39]: 73%
CCC(=O)N[C@@H]1CC[C@H](C(=O)N(C)c2ccc(-c3nc4ccccc4o3)cc2)C1 [BI 99990]	100%	89%	17.9%	89%	77%	100%	84%	76%	84%	100%	84%	100%	99%	84%	96%	95%	100%	100%	100%	77%	residual activity [21]: 36%; residual activity [22]: 100%; residual activity [23]: 89%; residual activity [24]: 100%; residual activity [25]: 82%; residual activity [26]: 77%; residual activity [27]: 100%; residual activity [28]: 100%; residual activity [29]: 96%; residual activity [30]: 94%; residual activity [31]: 87%; residual activity [32]: 100%; residual activity [33]: 89%; residual activity [34]: 92%; residual activity [35]: 74%; residual activity [36]: 100%; residual activity [37]: 100%; residual activity [38]: 98%; residual activity [39]: 92%
